The text below walks through data of patent US9179674B2, “Macrocyclic picolinamide compounds with fungicidal activity” (DOW AGROSCIENCES LLC, priority 2013, dated 2015).

The subject of test [1] is Puccinia triticina. The test is described as follows: Wheat Brown Rust fungicidal activity (PUCCRT). Type of test: in vivo. The note with it: Puccinia triticina; for pest or weed control at 100 ppm: rate 100 ppm; for pest or weed control at 121.5 g/ha: rate 121.5 g/H. The procedure: Technical grades of materials were dissolved in acetone, which were then mixed with nine volumes of water containing 110 ppm Triton X-100. The fungicide solutions were applied onto wheat seedlings using an automated booth sprayer to run-off. All sprayed plants were allowed to air dry prior to further handling. All fungicides were evaluated using the aforementioned method for their activity vs. all target diseases. Wheat leaf blotch and brown rust activity were also evaluated using track spray applications, in which case the fungicides were formulated as EC formulations, containing 0.1% Trycol 5941 in the spray solutions. Wheat plants (variety Yuma) were grown from seed in a greenhouse in 50% mineral soil/50% soil-less Metro mix until the first leaf was fully emerged, with 7-10 seedlings per pot. These plants were inoculated with an aqueous spore suspension of Septoria tritici either prior to or after fungicide treatments. After inoculation the plants were kept in 100% relative humidity (one day in a dark dew chamber followed by two to three days in a lighted dew chamber at 20° C.) to permit spores to germinate and infect the leaf. The plants were then transferred to a greenhouse set at 20° C. for disease to develop. When disease symptoms were fully expressed on the 1st leaves of untreated plants, infection levels were assessed on a scale of 0 to 100 percent disease severity. Percent disease control was calculated using the ratio of disease severity on treated plants relative to untreated plants. Evaluation of Fungicidal Activity: Wheat Brown Rust (Puccinia triticina; Synonym: Puccinia recondite f sp. tritici; Bayer code PUCCRT) Wheat plants (variety Yuma) were grown from seed in a greenhouse in 50% mineral soil/50% soil-less Metro mix until the first leaf was fully emerged, with 7-10 seedlings per pot. These plants were inoculated with an aqueous spore suspension of Puccinia triticina either prior to or after fungicide treatments. After inoculation the plants were kept in a dark dew room at 22° C. with 100% relative humidity overnight to permit spores to germinate and infect the leaf. The plants were then transferred to a greenhouse set at 24° C. for disease to develop. Fungicide formulation, application and disease assessment followed the procedures as described in the Example A.

Test [2] concerns Mycosphaerella graminicola; Anamorph: Septoria tritici. The test is described as follows: Leaf Blotch of Wheat fungicidal activity (SEPTTR). Type of test: in vivo. Conditions: Zymoseptoria tritici; for pest or weed control at 100 ppm: rate 100 ppm; for pest or weed control at 121.5 g/ha: rate 121.5 g/H. On the procedure: Evaluation of Fungicidal Activity: Leaf Blotch of Wheat (Mycosphaerella graminicola; Anamorph: Septoria tritici; Bayer code […]) Technical grades of materials were dissolved in acetone, which were then mixed with nine volumes of water containing 110 ppm Triton X-100. The fungicide solutions were applied onto wheat seedlings using an automated booth sprayer to run-off. All sprayed plants were allowed to air dry prior to further handling. All fungicides were evaluated using the aforementioned method for their activity vs. all target diseases. Wheat leaf blotch and brown rust activity were also evaluated using track spray applications, in which case the fungicides were formulated as EC formulations, containing 0.1% Trycol 5941 in the spray solutions. Wheat plants (variety Yuma) were grown from seed in a greenhouse in 50% mineral soil/50% soil-less Metro mix until the first leaf was fully emerged, with 7-10 seedlings per pot. These plants were inoculated with an aqueous spore suspension of Septoria tritici either prior to or after fungicide treatments. After inoculation the plants were kept in 100% relative humidity (one day in a dark dew chamber followed by two to three days in a lighted dew chamber at 20° C.) to permit spores to germinate and infect the leaf. The plants were then transferred to a greenhouse set at 20° C. for disease to develop. When disease symptoms were fully expressed on the 1st leaves of untreated plants, infection levels were assessed on a scale of 0 to 100 percent disease severity. Percent disease control was calculated using the ratio of disease severity on treated plants relative to untreated plants.

Setting [3] is: 24 h, 1 Day Protectant, read-out: Disease control PUCCRT 1DP.
Setting [4] is: 72 h, 3 Day Curative, read-out: Disease control PUCCRT 3DC.
The mark [5] stands for this setting: 24 h, 1 Day Protectant, read-out: Disease control SEPTTR 1DP.
[6] abbreviates: 72 h, 3 Day Curative, read-out: Disease control SEPTTR 3DC.

Read-outs that look alike come from different tables or passages of the source.

As to `COc1ccnc(C(=O)N[C@H]2COC[C@H](CCC(C)C)[C@@H](OCC(C)C)[C@H](C)OC2=O)c1OC(C)=O` [Compound F68], the pest or weed control at 100 ppm in test [1] (setting [3]), in test [1] (setting [4]), in test [2] (setting [5]) and in test [2] (setting [6]) was 80 to 100% each time. The pest or weed control at 121.5 g/ha in test [1] (setting [3]), in test [1] (setting [4]), in test [2] (setting [5]) and in test [2] (setting [6]) was 80 to 100% in each case.
On to `COc1ccnc(C(=O)N[C@H]2COC[C@H](CCC(C)C)[C@@H](Oc3ccc(C)cc3)[C@H](C)OC2=O)c1OC(C)=O` [Compound F69], for which the pest or weed control at 100 ppm in test [1] (setting [3]), in test [1] (setting [4]), in test [2] (setting [5]) and in test [2] (setting [6]) was 80 to 100% in each case. The pest or weed control at 121.5 g/ha in test [1] (setting [3]) is 80 to 100%; in test [1] (setting [4]), 0 to 80%; in test [2] (setting [5]) it was 80 to 100%; in test [2] (setting [6]), 80 to 100%.
As for `CCCO[C@@H]1[C@@H](CCC(C)C)COC[C@H](NC(=O)c2nccc(OC)c2OC(C)=O)C(=O)O[C@H]1C` [Compound F70], the pest or weed control at 100 ppm in test [1] (setting [3]), in test [1] (setting [4]), in test [2] (setting [5]) and in test [2] (setting [6]) was 80 to 100% in each case.
As to `COc1ccnc(C(=O)N[C@H]2COC[C@H](CCC(C)C)[C@@H](OC3CCCC3)[C@H](C)OC2=O)c1OC(C)=O` [Compound F71], the pest or weed control at 100 ppm in test [1] (setting [3]), in test [1] (setting [4]), in test [2] (setting [5]) and in test [2] (setting [6]) was 80 to 100% each time.
As for `COc1ccnc(C(=O)N[C@H]2COC[C@H](Cc3cc(F)c(F)c(F)c3)[C@@H](OCC(C)C)[C@H](C)OC2=O)c1OC(C)=O` [Compound F72], the pest or weed control at 100 ppm in test [1] (setting [3]), in test [1] (setting [4]), in test [2] (setting [5]) and in test [2] (setting [6]) was 80 to 100% each time. Also, the pest or weed control at 121.5 g/ha in test [1] (setting [3]), in test [1] (setting [4]), in test [2] (setting [5]) and in test [2] (setting [6]) was 80 to 100% in each case.
Regarding `COc1ccnc(C(=O)N[C@H]2COC[C@H](Cc3cccc4ccccc34)[C@@H](OC3CCCC3)[C@H](C)OC2=O)c1OCOC(C)=O` [Compound F86], the pest or weed control at 100 ppm in test [1] (setting [3]), in test [1] (setting [4]), in test [2] (setting [5]) and in test [2] (setting [6]) was 80 to 100% throughout.
As for `COc1ccnc(C(=O)N[C@H]2COC[C@H](Cc3cccc4ccccc34)[C@@H](OCC(C)C)[C@H](C)OC2=O)c1OCOC(C)=O` [Compound F87], the pest or weed control at 100 ppm in test [1] (setting [3]), in test [1] (setting [4]), in test [2] (setting [5]) and in test [2] (setting [6]) was 80 to 100% in each case. The pest or weed control at 121.5 g/ha in test [1] (setting [3]) is 80 to 100%; in test [1] (setting [4]) it was 0 to 80%; in test [2] (setting [5]), 80 to 100%; in test [2] (setting [6]) it was 80 to 100%.
In the case of `COc1ccnc(C(=O)N[C@H]2COC[C@H](CCc3ccccc3)[C@@H](OC(=O)C3CC3)[C@H](C)OC2=O)c1OCOC(C)=O` [Compound F92], the pest or weed control at 100 ppm in test [1] (setting [3]), in test [1] (setting [4]), in test [2] (setting [5]) and in test [2] (setting [6]) was 80 to 100% throughout. Besides, the pest or weed control at 121.5 g/ha in test [1] (setting [3]), in test [1] (setting [4]), in test [2] (setting [5]) and in test [2] (setting [6]) was 80 to 100% throughout.
In the case of `COc1ccnc(C(=O)N[C@H]2COC[C@H](Cc3ccc(F)cc3)[C@@H](OCCCC(F)(F)F)[C@H](C)OC2=O)c1OCOC(C)=O` [Compound F93], the pest or weed control at 100 ppm in test [1] (setting [3]), in test [1] (setting [4]), in test [2] (setting [5]) and in test [2] (setting [6]) was 80 to 100% throughout. Moreover, the pest or weed control at 121.5 g/ha in test [1] (setting [3]), in test [1] (setting [4]), in test [2] (setting [5]) and in test [2] (setting [6]) was 80 to 100% throughout.
As for `COc1ccnc(C(=O)N[C@H]2COC[C@H](Cc3ccc(F)cc3)[C@@H](OC3CCCC3)[C@H](C)OC2=O)c1OCOC(C)=O` [Compound F94], the pest or weed control at 100 ppm in test [1] (setting [3]), in test [1] (setting [4]), in test [2] (setting [5]) and in test [2] (setting [6]) was 80 to 100% in each case. The pest or weed control at 121.5 g/ha in test [1] (setting [3]), in test [1] (setting [4]), in test [2] (setting [5]) and in test [2] (setting [6]) was 80 to 100% throughout.
For the compound `CCCCCO[C@@H]1[C@@H](Cc2ccc(F)cc2)COC[C@H](NC(=O)c2nccc(OC)c2OCOC(C)=O)C(=O)O[C@H]1C` [Compound F95], the pest or weed control at 100 ppm in test [1] (setting [3]), in test [1] (setting [4]), in test [2] (setting [5]) and in test [2] (setting [6]) was 80 to 100% throughout.
As for `COc1ccnc(C(=O)N[C@H]2COC[C@H](Cc3ccc(C)cc3)[C@@H](OC(=O)C3CC3)[C@H](C)OC2=O)c1OCOC(C)=O` [Compound F97], the pest or weed control at 100 ppm in test [1] (setting [3]) fell in the range of 80 to 100%; in test [1] (setting [4]) it was 80 to 100%; in test [2] (setting [5]), 80 to 100%; in test [2] (setting [6]), 0 to 80%. Besides, the pest or weed control at 121.5 g/ha in test [1] (setting [3]), in test [1] (setting [4]), in test [2] (setting [5]) and in test [2] (setting [6]) was 80 to 100% in each case.
In the case of `COc1ccnc(C(=O)N[C@H]2COC[C@H](Cc3ccc(C(F)(F)F)cc3)[C@@H](OC(=O)C3CC3)[C@H](C)OC2=O)c1OCOC(C)=O` [Compound F98], the pest or weed control at 100 ppm in test [1] (setting [3]), in test [1] (setting [4]), in test [2] (setting [5]) and in test [2] (setting [6]) was 80 to 100% throughout. Further, the pest or weed control at 121.5 g/ha in test [1] (setting [3]) was in the range of 80 to 100%; in test [1] (setting [4]), 0 to 80%; in test [2] (setting [5]), 80 to 100%; in test [2] (setting [6]), 0 to 80%.
`COc1ccnc(C(=O)N[C@H]2COC[C@H](Cc3ccc(C(F)(F)F)cc3)[C@@H](OCC(C)C)[C@H](C)OC2=O)c1OCOC(C)=O` [Compound F99]: the pest or weed control at 100 ppm in test [1] (setting [3]), in test [1] (setting [4]), in test [2] (setting [5]) and in test [2] (setting [6]) was 80 to 100% in each case. Further, the pest or weed control at 121.5 g/ha was 80 to 100% in test [1] (setting [3]), 0 to 80% in test [1] (setting [4]), 80 to 100% in test [2] (setting [5]) and 80 to 100% in test [2] (setting [6]).
Consider `COc1ccnc(C(=O)N[C@H]2COC[C@H](Cc3ccc(C(F)(F)F)cc3)[C@@H](OC3CCCC3)[C@H](C)OC2=O)c1OCOC(C)=O` [Compound F100], for which the pest or weed control at 100 ppm in test [1] (setting [3]), in test [1] (setting [4]), in test [2] (setting [5]) and in test [2] (setting [6]) was 80 to 100% in each case. Further, the pest or weed control at 121.5 g/ha fell in the range of 80 to 100% in test [1] (setting [3]), 0 to 80% in test [1] (setting [4]), 80 to 100% in test [2] (setting [5]) and 0 to 80% in test [2] (setting [6]).
